The text below walks through data of patent US10669268B2, “Bicyclic derivatives” (Hoffmann-La Roche Inc., priority 2012, dated 2020).

Structures are written as SMILES.

This assay has as its target ATX (human His-tagged) (Homo sapiens (Human), UniProt Q13822). Description: Human ATX enzyme inhibition assay (fluorescence quenching, MR121 substrate). The assay is classed as biochemical. Conditions: 30 nM ATX, 1 μM MR121 substrate, 30° C., pH 8.0. Here is the method: Human ATX Enzyme Inhibition Assay
Assay working solutions were made as follows:
Assay buffer (50 mM Tris-HCl, 140 mM NaCl, 5 mM KCl, 1 mM CaCl2, 1 mM MgCl2, 0.01% Triton-X-100, pH 8.0;
MR121 substrate solution: MR121 substrate stock solution (800 μM MR121 substrate in DMSO), diluted to 2-5× final concentration in assay buffer.
10 μL of MR121 substrate solution was added (1 μM final concentration), mixed 30 times and then incubated for 15 minutes at 30° C.

On to `CC(C)c1ccccc1OCC(=O)N1C[C@@H]2CN(C(=O)c3ccc4[nH]nnc4c3)C[C@H]2C1` [Example 15.86], for which the IC50 was 19 nM.

For the molecule `O=C(CCc1ccc(OCC(F)(F)F)cc1F)N1CC[C@@H]2CN(C(=O)c3ccc4[nH]nnc4c3)C[C@@H]2CC1` [Example 1.45, 1-[(3aS,8aR)-2-(1H-benzotriazole-5-carbonyl)-1,3,3a,4,5,7,8,8a-octahydropyrrolo[3,4-d]azepin-6-yl]-3-[2-fluoro-4-(2,2,2-trifluoroethoxy)phenyl]propan-1-one], the IC50 is 7 nM.

Regarding `CC(C)c1cc(C#N)ccc1OCC(=O)N1C[C@@H]2CN(C(=O)c3ccc4[nH]nnc4c3)C[C@H]2C1` [Example 19.03, 4-{2-[(3aS,6aS)-5-(1H-benzotriazole-5-carbonyl)-hexahydro-pyrrolo[3,4-c]pyrrol-2-yl]-2-oxo-ethoxy}-3-isopropyl-benzonitrile], the IC50 came to 8 nM.

The molecule `O=C(CCc1ccc(OC(F)(F)F)cc1)N1CC[C@@H]2CN(C(=O)NCCc3cnn[nH]3)C[C@@H]2CC1` [Example 17.14, (3aS,8aR)-6-[3-(4-trifluoromethoxy-phenyl)-propionyl]-octahydro-pyrrolo[3,4-d]azepine-2-carboxylic acid [2-(3H-[1,2,3]triazol-4-yl)-ethyl]-amide] had an IC50 of 464 nM.

Turning to `O=C(/C=C/c1ccc(OC(F)F)cc1)N1C[C@@H]2CN(C(=O)c3ccc4[nH]nnc4c3)C[C@H]2C1` [Example 15.36, (E)-1-((3aR,6aR)-5-(1H-benzo[d][1,2,3]triazole-5-carbonyl)hexahydro-pyrrolo[3,4-c]pyrrol-2(1H)-yl)-3-(4-(difluoromethoxy)phenyl)-prop-2-en-1-one], 3 nM corresponded to half-maximal inhibition (IC50).

Take `CCOc1cc(Cl)c(F)cc1COC(=O)N1C[C@@H]2CN(C(=O)c3ccc4[nH]nnc4c3)C[C@H]2C1` [Example 4.67, (3aS,6aS)-5-(1H-benzotriazole-5-carbonyl)-hexahydro-pyrrolo[3,4-c]pyrrole-2-carboxylic acid 4-chloro-2-ethoxy-5-fluoro-benzyl ester]: the IC50 is 8 nM.

In the case of `CC(C)(C)c1cc(Br)ccc1OCC(=O)N1C[C@@H]2CN(C(=O)c3ccc4[nH]nnc4c3)C[C@H]2C1` [Example 19.30, 1-[(3aS,6aS)-5-(1H-benzotriazole-5-carbonyl)-1,3,3a,4,6,6a-hexahydropyrrolo[3,4-c]pyrrol-2-yl]-2-(4-bromo-2-tert-butylphenoxy)ethanone], the IC50 is 5 nM.

With `O=C(OCc1ccc(OC(F)F)c(F)c1)N1C[C@@H]2CN(C(=O)c3ccc4[nH]nnc4c3)C[C@H]2C1` [Example 4.39, (3aS,6aS)-5-(1H-benzotriazole-5-carbonyl)-hexahydro-pyrrolo[3,4-c]pyrrole-2-carboxylic acid 4-difluoromethoxy-3-fluoro-benzyl ester], half-maximal inhibition (IC50) required 6 nM.

`Cc1ccc(/C=C/C(=O)N2CC[C@@H]3CN(C(=O)c4ccc5[nH]nnc5c4)C[C@@H]3CC2)cc1` [Example 15.07] came in with an IC50 of 21 nM.

`O=C(OCc1cc(Cl)cc(Cl)c1)N1CC[C@@H]2CN(C(=O)c3ccc4[nH]nnc4c3)C[C@@H]2CC1` [Example 1.11, (3aR,8aS)-3,5-dichlorobenzyl 2-(1H-benzo[d][1,2,3]triazole-5-carbonyl)octahydropyrrolo[3,4-d]azepine-6(7H)-carboxylate] returned an IC50 of 4 nM.

`CS(=O)(=O)c1cc(Cl)cc(COC(=O)N2C[C@@H]3CN(C(=O)[C@@H]4CCc5[nH]nnc5C4)C[C@H]3C2)c1` [Example 4.60, (3aS,6aS)-5-((R)-4,5,6,7-tetrahydro-1H-benzotriazole-5-carbonyl)-hexahydro-pyrrolo[3,4-c]pyrrole-2-carboxylic acid 3-chloro-5-methanesulfonyl-benzyl ester]: the IC50 worked out at 5 nM.

`CC(C)(Cc1cccc(Cl)c1)C(=O)N1CC[C@@H]2CN(C(=O)NCc3cnn[nH]3)C[C@@H]2CC1` [Example 9.08] gave an IC50 of 3400 nM.

Molecule `CC(C)Oc1cc(C(=O)N2C[C@@H]3CN(C(=O)[C@@H]4CCc5[nH]nnc5C4)C[C@H]3C2)nc2ccccc12` [Example 19.25, [(3aS,6aS)-5-[(5R)-4,5,6,7-tetrahydro-1H-benzotriazole-5-carbonyl]-1,3,3a,4,6,6a-hexahydropyrrolo[3,4-c]pyrrol-2-yl]-(4-propan-2-yloxyquinolin-2-yl)methanone] yielded an IC50 of 15 nM.

The molecule `CS(=O)(=O)c1cc(Cl)cc(COC(=O)N2C[C@@H]3CN(C(=O)c4ccc5[nH]nnc5c4)CC[C@H]3C2)c1` [Example 4.09, (3aS,7aR)-5-(1H-benzotriazole-5-carbonyl)-octahydro-pyrrolo[3,4-c]pyridine-2-carboxylic acid 3-chloro-5-methanesulfonyl-benzyl ester] had an IC50 of 49 nM.

Consider `O=C(/C=C/c1ccc(C(F)(F)F)cn1)N1C[C@@H]2CN(C(=O)c3ccc4[nH]nnc4c3)C[C@H]2C1` [Example 15.78, (E)-1-[(3aR,6aR)-5-(1H-benzotriazole-5-carbonyl)-hexahydro-pyrrolo[3,4-c]pyrrol-2-yl]-3-(5-trifluoromethyl-pyridin-2-yl)-prop-2-en-1-one], for which the IC50 was 9 nM.

The molecule `N#Cc1cc(F)cc(COC(=O)N2C[C@@H]3CN(C(=O)c4ccc5[nH]nnc5c4)C[C@@H]3C2)c1` [Example 4.29, (3aR,6aS)-3-cyano-5-fluorobenzyl 5-(1H-benzo[d][1,2,3]triazole-5-carbonyl)hexahydropyrrolo[3,4-c]pyrrole-2(1H)-carboxylate] showed an IC50 of 643 nM.

For the molecule `O=C(CCc1ccccc1)N1C[C@@H]2CN(C(=O)c3ccc4[nH]nnc4c3)C[C@H]2C1` [Example 15.57], the IC50 is 494 nM.

Molecule `COc1ccc(/C=C/C(=O)N2CC[C@@H]3CN(C(=O)c4ccc5[nH]nnc5c4)C[C@@H]3CC2)cc1F` [Example 1.19, (E)-1-((3aR,8aS)-2-(1H-benzo[d][1,2,3]triazole-5-carbonyl)octahydropyrrolo[3,4-d]azepin-6(7H)-yl)-3-(3-fluoro-4-methoxyphenyl)prop-2-en-1-one] returned an IC50 of 12 nM.

In the case of `O=C(OCc1ccc(C(F)(F)F)cc1)N1C[C@@H]2CN(C(=O)[C@@H]3CCc4[nH]nnc4C3)C[C@H]2C1` [Example 4.59, (3aS,6aS)-5-((R)-4,5,6,7-tetrahydro-1H-benzotriazole-5-carbonyl)-hexahydro-pyrrolo[3,4-c]pyrrole-2-carboxylic acid 4-trifluoromethyl-benzyl ester], it took 9 nM to reach half-maximal inhibition (IC50).

In the case of `O=C(OCc1cc(Cl)cc(Cl)c1)N1CC[C@H]2CN(C(=O)c3ccc4[nH]nnc4c3)C[C@H]2C1` (relative stereo) [Example 1.10, cis-3,5-dichlorobenzyl 2-(1H-benzo[d][1,2,3]triazole-5-carbonyl)hexahydro-1H-pyrrolo[3,4-c]pyridine-5(6H)-carboxylate], the IC50 stood at 78 nM.

Molecule `O=C(/C=C/c1ccc(OC(F)(F)F)cc1)N1C[C@@H]2CN(C(=O)NCc3c[nH]nn3)C[C@@H]2C1` [Example 9.02] yielded an IC50 of 1600 nM.

In turn, `O=C(OCc1ccc(OC(F)(F)F)c(F)c1)N1C[C@@H]2CN(C(=O)c3ccc4[nH]nnc4n3)C[C@H]2C1` [Example 4.40, (3aS,6aS)-5-(1H-[1,2,3]triazolo[4,5-b]pyridine-5-carbonyl)-hexahydro-pyrrolo[3,4-c]pyrrole-2-carboxylic acid 3-fluoro-4-trifluoromethoxy-benzyl ester] gave an IC50 of 16 nM.

Regarding `O=C(CCc1ccc(OC(F)(F)F)c(F)c1)N1C[C@@H]2CN(C(=O)c3ccc4[nH]nnc4c3)C[C@H]2C1` [Example 19.09, 1-[(3aR,6aR)-5-(1H-benzotriazole-5-carbonyl)-hexahydro-pyrrolo[3,4-c]pyrrol-2-yl]-3-(3-fluoro-4-trifluoromethoxy-phenyl)-propan-1-one], the IC50 was 10 nM.

Turning to `O=C(/C=C/c1cccc(OC(F)(F)F)c1)N1C[C@@H]2CN(C(=O)c3ccc4[nH]nnc4c3)C[C@H]2C1` [Example 15.22], the IC50 worked out at 53 nM.

`O=C(c1cnc(OC2CCC2)c(C(F)(F)F)c1)N1C[C@@H]2CN(C(=O)c3ccc4[nH]nnc4c3)C[C@H]2C1` [Example 19.39, ((3aS,6aS)-5-(1H-benzo[d][1,2,3]triazole-5-carbonyl)hexahydropyrrolo[3,4-c]pyrrol-2(1H)-yl)(6-cyclobutoxy-5-(trifluoromethyl)pyridin-3-yl)methanone] had an IC50 of 7 nM.

On to `O=C(/C=C/c1ccc(OC(F)F)cc1)N1CC[C@@H]2CN(C(=O)c3ccc4[nH]nnc4c3)C[C@@H]2CC1` [Example 15.21], for which the IC50 was found to be 5 nM.

`O=C1N[C@@H]2CCN(C(=O)N3C[C@H]4CCN(C(=O)/C=C/c5ccc(OC(F)(F)F)cc5)CC[C@H]4C3)C[C@@H]2O1` [Example 8.03] returned an IC50 of 911 nM.

The molecule `CS(=O)(=O)c1cc(Cl)cc(COC(=O)N2C[C@@H]3CN(C(=O)c4ccc5[nH]nnc5c4)C[C@H]3C2)c1` [Example 4.03, (3aS,6aS)-5-(1H-benzotriazole-5-carbonyl)-hexahydro-pyrrolo[3,4-c]pyrrole-2-carboxylic acid 3-chloro-5-methanesulfonyl-benzyl ester] showed an IC50 of 11 nM.

Molecule `N#Cc1ccc(COC(=O)N2C[C@@H]3CN(C(=O)c4ccc5[nH]nnc5c4)C[C@H]3C2)c(OC2CCC2)c1` [Example 4.64, (3aS,6aS)-5-(1H-benzotriazole-5-carbonyl)-hexahydro-pyrrolo[3,4-c]pyrrole-2-carboxylic acid 4-cyano-2-cyclobutoxy-benzyl ester] yielded an IC50 of 19 nM.

`O=C(/C=C/c1ccccn1)N1CC[C@@H]2CN(C(=O)c3ccc4[nH]nnc4c3)C[C@@H]2CC1` [Example 15.16] showed an IC50 of 5790 nM.

In general, IC50 refers to the concentration that inhibits the measured activity by half.
